The record followed here is the OPERA property sets (Mansouri et al. 2018).

Conditions in the first series: not given
The term melting point denotes the temperature of the solid-liquid transition. For the compound `O=c1[nH]c2ccccc2n1C1CCN(CCCC(c2ccc(F)cc2)c2ccc(F)cc2)CC1`, the melting point was determined as 216 °C.
Same read-out and setting: the same measure for `O=C(O)c1ccccc1Nc1cccc(C(F)(F)F)c1`: 134 °C.
For orientation: boiling point means the temperature at which the vapour pressure of the liquid equals the pressure above it. In turn, `ClC(Cl)(Cl)C1CO1` (stereo not drawn) came in with a boiling point of 149 °C.
`BrC(Br)c1ccccc1OCC1CO1` (stereo not drawn): the ready biodegradability entry was “not readily biodegradable”.
`O=[N+]([O-])c1ccccc1I` came in with a boiling point of 290 °C and a melting point of 54 °C.
`OCCN(CCO)c1nc(N2CCCCC2)c2nc(N(CCO)CCO)ncc2n1` showed a melting point of 158 °C.
Consider `CC(C)(Br)C(=O)O`, for which the boiling point was 199 °C and the melting point came to 48.5 °C.
Turning to `CCON=O`, the boiling point is 18 °C.
Still for that read-out and setting: the same measure for `O=C1CCOCC1`: 166 °C.
With `CCOC(=O)C(=O)OCC`, the boiling point was 186 °C, the log10 vapour pressure (mmHg) was -0.383, the melting point is -40.6 °C and the ready biodegradability result is “readily biodegradable”.
In the case of `CC1OC(=O)C(C)OC1=O` (stereo not drawn), the melting point came to 118 °C.
On the same count and under the same terms, for `CC1=C(CCO)SC2=Nc3nc(C)ncc3CN21` the value was 229 °C; for `COc1cccc(Cl)c1Cl`, 32 °C.
With `CC(=O)Nc1cccnc1`, the boiling point amounted to 326 °C and the melting point turned out to be 133 °C.
`CC(C)(C)C(O)(CCc1ccc(Cl)cc1)Cn1cncn1` (stereo not drawn) returned a log10 vapour pressure (mmHg) of -7.89 and a melting point of 102 °C.
`FC(F)(F)COCC(F)(F)F` showed a boiling point of 63.9 °C and a log10 vapour pressure (mmHg) of 2.19.
Compound `O=C([O-])CF.[Na+]` registered a melting point of 201 °C.
`COc1cccc(OC)c1C(C)=O`: the melting point is 69 °C.
Compound `Cc1cccc2ccccc12` showed a boiling point of 245 °C, a log10 Henry constant (atm·m³/mol) of -3.29, a log10 Koc (L/kg) of 3.36 and a log10 biodegradation half-life (days) of 0.962. Also, the log10 vapour pressure (mmHg) was -1.17, the melting point is -30.4 °C and the ready biodegradability entry was “not readily biodegradable”.
In the case of `CC(=O)OCC(CO)OC(C)=O` (stereo not drawn), the boiling point was found to be 259 °C and the ready biodegradability entry is recorded as “readily biodegradable”.
The compound `CCC(C1CCCCC1)C1CCCCC1` gave a boiling point of 284 °C and a melting point of -23.5 °C.
`CCCCCCCC(=O)OCC` gave a boiling point of 208 °C, a log10 Koc (L/kg) of 3.02 and a melting point of -43.1 °C.
On to `CCN(CC)CCN(CC)CC`, for which the boiling point came to 192 °C.
Compound `Nc1ncnc2c1ncn2[C@@H]1O[C@H](CO)C[C@H]1O` came in with a melting point of 226 °C.
On the same count and under the same terms, for `Nc1ccc(S(=O)(=O)Nc2nccs2)cc1` the value was 189 °C.
The compound `O=C(O)C(F)(F)C(F)(F)C(F)(F)C(F)(F)C(F)(F)C(F)(F)F` showed a boiling point of 177 °C and a log10 vapour pressure (mmHg) of -0.876.
`O=C(Nc1cccc2ccccc12)c1ccccc1C(=O)[O][Na]` returned a log10 Koc (L/kg) of 3.34.
Consider `Brc1cccc(Br)c1`, for which the boiling point stood at 218 °C, the log10 vapour pressure (mmHg) is -0.571 and the melting point is -7 °C.
Take `COc1ccccc1OCC(O)COC(N)=O` (stereo not drawn): the melting point was determined as 93 °C and the ready biodegradability entry is recorded as “not readily biodegradable”.
`NC(=S)Nc1cccc2ccccc12`: the melting point was 198 °C.
The same measure, in the same setting: for `COc1ccc(CCc2cc(OC)c3ccccc3n2)cc1OC` the value was 116 °C.
In turn, `COC(=O)CCC#N` gave a boiling point of 211 °C.
With `CC1=CCC2C(=O)OC(=O)C2C1` (stereo not drawn), the ready biodegradability entry is listed as “not readily biodegradable”.
Consider `O=C(C(F)(F)F)C(F)(F)Cl`, for which the boiling point turned out to be 8 °C, the log10 vapour pressure (mmHg) stood at 3.15 and the melting point was -133 °C.
For `c1ccc(N=C(Nc2ccccc2)Nc2ccccc2)cc1`, the melting point worked out at 146 °C.
Consider `COc1ccc(N)c(OC)c1`, for which the melting point worked out at 33.5 °C.
Compound `CNc1ccccn1` had a boiling point of 200 °C and a melting point of 15 °C.
In the case of `CCOc1cc(Oc2ccc(C(F)(F)F)cc2Cl)ccc1[N+](=O)[O-]`, the boiling point was 358 °C, the log10 Koc (L/kg) is 5, the log10 vapour pressure (mmHg) is -6.7 and the melting point was found to be 84 °C.
For the compound `COc1ccc(C[C@H]2NC[C@H](O)[C@H]2OC(C)=O)cc1`, the melting point is 140 °C.
`C1CCC2CC2C1` (stereo not drawn): the boiling point is 116 °C and the log10 vapour pressure (mmHg) was determined as 1.36.
With `Cc1ccc(Nc2ccc(Nc3ccc(C)cc3)c3c2C(=O)c2ccccc2C3=O)cc1`, the melting point is 218 °C.
On to `COc1ccc(N=[N+]([O-])c2ccc(OC)cc2)cc1`, for which the melting point worked out at 127 °C.
Compound `C[Se]C` returned a boiling point of 55 °C, a log10 Henry constant (atm·m³/mol) of -2.76 and a log10 vapour pressure (mmHg) of 2.38.
`CCN1C(=O)c2ccccc2C1=O` yielded a boiling point of 286 °C and a melting point of 79 °C.
In turn, `O=[N+]([O-])c1ccccc1/C=C/c1ccccc1` came in with a melting point of 73 °C.
Take `Cc1cccc(-c2ccccc2)c1`: the boiling point turned out to be 273 °C and the melting point was determined as 4.5 °C.
On to `CCCCCCCCCCCCCCCC/C=C/C1CC(=O)OC1=O` (stereo not drawn), for which the ready biodegradability result was “not readily biodegradable”.

The same series, now with this note: fish.
`Clc1ccc(Cl)c(-c2cc(Cl)c(Cl)cc2Cl)c1` registered a log10 BCF of 5.47 and a log10 biotransformation half-life (days) of 2.46.
Compound `CCC(C)CCCC(C)CCCC(C)C` (stereo not drawn) registered a log10 biotransformation half-life (days) of 1.36.
The compound `Nc1ccc(Cc2ccc(N)c(Cl)c2)cc1Cl` registered a log10 BCF of 2.24 and a log10 biotransformation half-life (days) of -0.15.
On the same counts, the results for `Clc1cc(Cl)c(-c2ccccc2)cc1Cl` are 3.78 and 1.84.
On to `O=S1(=O)CCCC1`, for which the log10 BCF is 0.85.
In the case of `CC(C)(C)C(O)(CCc1ccc(Cl)cc1)Cn1cncn1` (stereo not drawn), the log10 biotransformation half-life (days) turned out to be 0.77.
Regarding `Cc1cccc2ccccc12`, the log10 BCF was found to be 1.73.
Compound `Brc1cccc(Br)c1` gave a log10 BCF of 2.82 and a log10 biotransformation half-life (days) of 1.16.
Regarding `CCCCCC(C)CCCC(C)C` (stereo not drawn), the log10 biotransformation half-life (days) came to 1.02.
